Measured values published in patent US20200267980A1, “Herbicidally Active Pyridyl-/Pyrimidyl-Pyrimidine Derivatives” (Syngenta Participations AG, priority 2017, published 2020).

How the values were obtained:
Assay type in all cases: in vivo
Avena fatua (AVEFA) [1] = assay: Post-emergence herbicidal activity, glasshouse pot test; settings: 1000 g/ha, post-emergence spray after 8 days cultivation, evaluated after 13 days, damage score 0-5
Method: (§1) Seeds of a variety of test species were sown in standard soil in pots: Triticum aestivium (TRZAW), Avena fatua (AVEFA), Alopecurus myosuroides (ALOMY), Echinochloa crus-galli (ECHCG), Lolium perenne (LOLPE), and Setaria faberi (SETFA). After 8 days cultivation (post-emergence) under controlled conditions in a glasshouse (at 24/16° C., day/night; 14 hours light; 65% humidity), the plants were sprayed with an aqueous spray solution derived from the formulation of the technical active ingredient in acetone/water (50:50) solution containing 0.5% Tween 20 (polyoxyethelyene sorbitan monolaurate, CAS RN 9005-64-5). The test plants were then grown in a glasshouse under controlled conditions (at 24/16° C., day/night; 14 hours light; 65% humidity) and watered twice daily. After 13 days, the test was evaluated (5=total damage to plant; 0=no damage to plant).

Setaria faberi (SETFA) [2] = assay: as above; set-up: key: 5=total damage to plant; 0=no damage to plant; settings: 1000 g/ha, post-emergence spray after 8 days cultivation, evaluated after 13 days, damage score 0-5
Method: as §1

Lolium perenne (LOLPE) [3] = assay: as above; set-up: key: 5=total damage to plant; 0=no damage to plant; settings: 1000 g/ha, post-emergence spray after 8 days cultivation, evaluated after 13 days, damage score 0-5
Method: as §1

[4] = test system: Triticum aestivium (TRZAW); assay: as above; set-up: key: 5=total damage to plant; 0=no damage to plant; settings: 1000 g/ha, post-emergence spray after 8 days cultivation, evaluated after 13 days, damage score 0-5
Method: as §1

[5] = test system: Alopecurus myosuroides (ALOMY); assay: as above; set-up: key: 5=total damage to plant; 0=no damage to plant; settings: 1000 g/ha, post-emergence spray after 8 days cultivation, evaluated after 13 days, damage score 0-5
Method: as §1

[6] = test system: Echinochloa crus-galli (ECHCG); assay: as above; set-up: key: 5=total damage to plant; 0=no damage to plant; settings: 1000 g/ha, post-emergence spray after 8 days cultivation, evaluated after 13 days, damage score 0-5
Method: as §1

Avena fatua (AVEFA) [7] = assay: Pre-emergence herbicidal activity, glasshouse pot test; set-up: key: 5=total damage to plant; 0=no damage to plant; settings: 1000 g/ha, pre-emergence spray, evaluated after 13 days, damage score 0-5
Method: as §1, with “After” for “After 8 days”, “for one day (pre-emergence)” for “(post-emergence)”

Setaria faberi (SETFA) [8] = assay: as above; set-up: key: 5=total damage to plant; 0=no damage to plant; settings: 1000 g/ha, pre-emergence spray, evaluated after 13 days, damage score 0-5
Method: as §1, with “After” for “After 8 days”, “for one day (pre-emergence)” for “(post-emergence)”

Lolium perenne (LOLPE) [9] = assay: as above; set-up: key: 5=total damage to plant; 0=no damage to plant; settings: 1000 g/ha, pre-emergence spray, evaluated after 13 days, damage score 0-5
Method: as §1, with “After” for “After 8 days”, “for one day (pre-emergence)” for “(post-emergence)”

[10] = test system: Triticum aestivium (TRZAW); assay: as above; set-up: key: 5=total damage to plant; 0=no damage to plant; settings: 1000 g/ha, pre-emergence spray, evaluated after 13 days, damage score 0-5
Method: as §1, with “After” for “After 8 days”, “for one day (pre-emergence)” for “(post-emergence)”

[11] = test system: Alopecurus myosuroides (ALOMY); assay: as above; set-up: key: 5=total damage to plant; 0=no damage to plant; settings: 1000 g/ha, pre-emergence spray, evaluated after 13 days, damage score 0-5
Method: as §1, with “After” for “After 8 days”, “for one day (pre-emergence)” for “(post-emergence)”

[12] = test system: Echinochloa crus-galli (ECHCG); assay: as above; set-up: key: 5=total damage to plant; 0=no damage to plant; settings: 1000 g/ha, pre-emergence spray, evaluated after 13 days, damage score 0-5
Method: as §1, with “After” for “After 8 days”, “for one day (pre-emergence)” for “(post-emergence)”

SMILES | Control of weed species after post-emergence application, AVEFA (Avena fatua (AVEFA) [1]) | Control of weed species after post-emergence application, SETFA (Setaria faberi (SETFA) [2]) | Control of weed species after post-emergence application, LOLPE (Lolium perenne (LOLPE) [3]) | Control of weed species after post-emergence application, TRAZW [4] | Control of weed species after post-emergence application, ALOMY [5] | Control of weed species after post-emergence application, ECHCG [6] | Control of weed species after pre-emergence application, AVEFA (Avena fatua (AVEFA) [7]) | Control of weed species after pre-emergence application, SETFA (Setaria faberi (SETFA) [8]) | Control of weed species after pre-emergence application, LOLPE (Lolium perenne (LOLPE) [9]) | Control of weed species after pre-emergence application, TRAZW [10] | Control of weed species after pre-emergence application, ALOMY [11] | Control of weed species after pre-emergence application, ECHCG [12]
O=C(Nc1cnc(-c2cncc(F)c2)nc1C(F)(F)F)C(Cl)(Cl)Cl [Compound F5] | 2 | 5 | 3 | 1 | 2 | 4 | 1 | 5 | 0 | 0 | 0 | 3
CC(C)(C)C(=O)Nc1cnc(-c2cncc(F)c2)nc1C(F)(F)F [Compound F6] | 3 | 4 | 2 | 1 | 1 | 5 | 2 | 3 | 1 | 0 | 0 | 4
CCC(=O)N(C(=O)CC)c1cnc(-c2cncc(F)c2)nc1C(F)(F)F [Compound F7] | 2 | 4 | 2 | 1 | 1 | 5 | 1 | 2 | 1 | 0 | 0 | 2
O=C(Nc1cnc(-c2cncc(F)c2)nc1C(F)(F)F)C(Cl)Cl [Compound F8] | 2 | 5 | 2 | 1 | 1 | 4 | 1 | 4 | 1 | 1 | 0 | 4
O=C(Nc1cnc(-c2cncc(F)c2)nc1C(F)(F)F)c1cccs1 [Compound F9] | 2 | 4 | 2 | 1 | 0 | 4 | 1 | 4 | 1 | 0 | 0 | 2
O=C(Nc1cnc(-c2cncc(F)c2)nc1C(F)(F)F)c1ccccc1 [Compound F10] | 2 | 5 | 1 | 1 | 0 | 5 | 1 | 4 | 1 | 0 | 0 | 4
COCCC(=O)Nc1cnc(-c2cncnc2)nc1C(F)(F)F [Compound F16] | 3 | 5 | 2 | 1 | 1 | 5 | 1 | 5 | 1 | 0 | 0 | 4
O=C(CCC1CCCC1)Nc1cnc(-c2cncnc2)nc1C(F)(F)F [Compound F17] | 2 | 4 | 1 | 1 | 0 | 4 | 1 | 4 | 0 | 0 | 0 | 3
O=C(COc1ccccc1)Nc1cnc(-c2cncc(F)c2)nc1C(F)(F)F [Compound F18] | 3 | 4 | 1 | 1 | 0 | 4 | 1 | 4 | 0 | 0 | 0 | 3
